Test results from patent US20070098802A1, “Organic nanoparticles and associated methods” (priority 2005, published 2007).

Assay: Nanoparticle size by light scattering and scanning electron microscopy
Format: physicochemical
Details: 0.5% (w/v), 5 mg/ml glyburide in 70% ethanol and 30% chloroform by weight; water added until clouding
Experimental: A 0.5% (w/v) mixture of 5 mg/ml of glyburide in 70% ethanol and 30% chloroform by weight is prepared. To this mixture, water is added until clouding is observed at which point the emulsion has formed. Light scattering and scanning electron microscopy show the resulting nanoparticle size is on average about 500 nm. A few large nanoparticles may be observed of up to 1 to 3 μm.

## COc1ccc(Cl)cc1C(=O)NCCc1ccc(S(=O)(=O)NC(=O)NC2CCCCC2)cc1 [glyburide]
  resulting nanoparticle size, on average: about 500 nm
